Legend:
[1] = system: soluble VEGF121 and VEGF165 isoforms; test: VEGF inhibition EC50 by ELISA in the same human tumor cell lines (Table 25); format: cell-based
Protocol: Results. […] The conditioned media were collected and assayed by ELISA for soluble VEGF121 and VEGF165 isoforms (as described in Section 9.1.1.1); results were calculated as percentage inhibition relative to vehicle treated controls. EC50 values were calculated from the concentration response curves.

[2] = system: HT1080 xenografts; test: BrdU labeling of cells from HT1080 xenografts grown in nude mice; format: in vivo, athymic nude mice; conditions: Day 1, 2, 3; Compound #10 10 mg/kg oral QD, doxorubicin 6 mg/kg IP, bevacizumab 5 mg/kg IP
Protocol: Experimental Design. HT1080 cells (5×10^6 cells/mouse) were implanted subcutaneously in male athymic nude mice.
The mice were sacrificed 3 hours later, and the tumors collected. A single cell suspension was prepared from the tumor cells. The cells were permeabilized and an antibody to BrdU was used to stain cells that had entered S phase during the labeling period. The proportion of cells actively synthesizing DNA was determined by cell sorting.

[3] = system: bacterial reverse mutation; test: Bacterial reverse mutation study; format: cell-based; conditions: with and without metabolic activation
Protocol: (§1) Genotoxicity was assessed in a battery of in vitro and in vivo studies that included a bacterial reverse mutation study, a chromosome aberration study in Chinese hamster ovary (CHO) cells, and a micronucleus study in rats by the oral route. The in vitro studies were performed in the presence and absence of an exogenous metabolic activation system.

[4] = Micronucleus study in rats by the oral route; format: in vivo
Protocol: as §1

[5] = ECG and blood pressure assessments in 7-day and 28-day GLP toxicity studies
[6] = system: Human VEGF-A; test: HT1080 xenograft selectivity studies: intratumoral VEGF-A ELISA; format: in vivo; conditions: Study 5, 15-days, treatment initiated at ~600 mm^3
Description: Experimental Design. […] All of these factors can be produced at tumor sites, and all may support tumor growth and metastases. See Yoon et al., Circ Res. 2003, 93(2):87 90; Ferrara et al., Nat. Rev. Drug Discov. […] Biophys. Acta 2004,1654(1):79 94; Saharinen et al., Trends Immunol. 2004, 25(7):387 95. There is also evidence that VEGF-A may stimulate production of P1GF by a post transcriptional mechanism. See Yao et al., FEBS Lett. 2005, 579(5):1227 34. VEGF-B was not assessed. […] See Vagner at al., Mol. Cell. Biol. 1995, 15(1):35 44; Hellen et al., Genes Dev. 2001, 15(13):1593 612. The survivin protein was similarly evaluated because the survivin mRNA has an IRES. PDGF was assessed because this protein has angiogenic activity and its mRNA contains an IRES. See Sella et al., Mol. Cell. Biol. 1999, 19(8):5429 40; Hellen et al., supra. Endostatin was included because antiangiogenic treatment in vivo has shown that compensatory […] in endogenous angiogenic inhibitors such as endostatin, thrombospondin, and angiostatin, results in a more pro angiogenic environment. See Sim, Angiogenesis, 1998, 2(1):37-48.
In all of these experiments, HT1080 cells (5×10^6 cells/mouse) were implanted subcutaneously in male athymic nude mice. When tumors had become established, mice were divided into groups (10 mice/group). […] Tumor size was measured by calipers at the beginning and end of treatment. […]

[7] = molecular target: T1, CYPC19 (Homo sapiens, UniProt P33261); test: CYP inhibition: CYPC19; format: in vitro ADME; conditions: human hepatic microsomes or recombinant isoenzymes
T1 construct: host or cells: human hepatic microsomes or recombinant isoenzyme (not distinguished)
T1 sequence (P33261 whole entry): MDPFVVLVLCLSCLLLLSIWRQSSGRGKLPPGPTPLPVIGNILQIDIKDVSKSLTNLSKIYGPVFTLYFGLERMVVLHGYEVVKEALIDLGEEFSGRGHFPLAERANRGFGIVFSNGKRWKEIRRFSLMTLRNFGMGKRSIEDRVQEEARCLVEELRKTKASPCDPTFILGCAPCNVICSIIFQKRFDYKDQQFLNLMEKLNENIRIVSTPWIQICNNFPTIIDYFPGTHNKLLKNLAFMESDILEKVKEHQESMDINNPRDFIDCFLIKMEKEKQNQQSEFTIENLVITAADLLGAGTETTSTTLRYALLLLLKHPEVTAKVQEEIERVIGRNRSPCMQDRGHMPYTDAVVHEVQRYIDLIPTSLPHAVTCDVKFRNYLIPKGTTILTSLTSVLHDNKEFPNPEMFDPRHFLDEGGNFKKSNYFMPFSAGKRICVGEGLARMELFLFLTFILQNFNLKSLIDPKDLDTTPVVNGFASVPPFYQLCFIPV
Description: It is possible that in certain clinical trial subjects, such agents may need to be adjusted for dosing or replaced by alternative agents that are not metabolized by CYP2D6, particularly when such agents may have a low therapeutic index.

[8] = system: tumor volume; test: Patients: tumor volume by MRI; format: in vivo, human
Description: Antitumor activity: Previously used radiographic response and progression criteria (see, e.g., Widemann et al., J. Clin. Oncol., January 2006, 24(3):507-16; and di Tomaso, “Preliminary success with anti-angiogenic therapy of NF2-related tumors” (Meeting abstract) 2008 NF Conference, Children's Tumor Foundation, Bonita Springs, Fla., Jun. 6-10, 2008) can be used to evaluate the ability of a Compound to specifically induce tumor shrinkage.
Timing of Tumor Volume Assessment: Subjects may undergo tumor volume measurement at screening, and at various times throughout the treatment protocol.
Method of Assessment: The determination of antitumor efficacy may be based on objective tumor assessments made according to volumetric measurement (see Widemann et al., J Clin Oncol. 2006 Jan. 20; 24(3):507-16; di Tomaso et al., Preliminary success with anti-angiogenic therapy of NF2-related tumors. (Meeting abstract). 2008 NF Conference, Children's Tumor Foundation, Bonita Springs, Fla., Jun. 6-10, 2008; Harris et al., Neurosurgery. 2008 June 62(6): 1314-9) and treatment decisions by the physician can be based on these assessments.
The MRI examinations may be performed using a standard head coil with 1.5-T scanners. […] For VS quantitative assessment, the MRI scans may be transmitted to a Vitrea2 workstation (Vital Images, Minnetonka, Minn.) for image processing and volume calculation.

## COc1ccc(C2c3[nH]c4ccc(Cl)cc4c3CCN2C(=O)Oc2ccc(Cl)cc2)cc1 (racemic) [Compound #10]
[1]; Homo sapiens, ASPC1, ASPC-1 (Pancreas), 48 hours
  EC50: > 30000 nM
[1]; Homo sapiens, HCT-116, HCT116 (Colorectal), 48 hours
  EC50: 10 nM
[1]; Homo sapiens, HT-1080, HT1080 (Fibrosarcoma), 48 hours
  EC50: 10 nM
[1]; Homo sapiens, PL45, PL-45, 48 hours
  EC50: > 30000 nM
[1]; Homo sapiens, HEK293 (Renal cell), 48 hours
  EC50: 10 nM
[1]; Homo sapiens, HPAF-2, 48 hours
  EC50: > 30000 nM
[1]; Homo sapiens, HeLa (Cervical), 48 hours
  EC50: 2 nM
[1]; Homo sapiens, NCI H460 (Lung), 48 hours
  EC50: 10 nM
[1]; Homo sapiens, U-87MG (Glioblastoma), 48 hours
  EC50: > 30000 nM
[1]; PC-3, 48 hours
  EC50: > 30000 nM
[2]
  BrdU staining of tumor cells (proportion of cells in S phase): increased BrdU staining
[3]
  Genotoxic effects, bacterial reverse mutation: no evidence of genotoxic effects
[4]
  Genotoxic effects, micronucleus in rats: no evidence of genotoxic effects
[5]; males, 60 mg/kg/day, 28-day study
  QTc values vs controls: comparable to controls
[5]; males, 60 mg/kg/day, end of 28-day dosing
  Increase in mean uncorrected QT value vs controls: 7%
[5]; through 120 mg/kg/day for 7-days and through 60 mg/kg/day for 28-days
  Toxicological effects on ECG or blood pressure: did not have any toxicological effects
[6]
  Decrease in intratumoral VEGF levels: 78%
[7]
  Inhibition of CYPC19: No meaningful inhibition
[8]
  Tumor volume, one patient (FIG. 40): reducing and stabilizing tumor volume
